Source: PubChem BioAssay AID2060513 (Molecular Pharmacology Branch, DTP, NCI, 2025)

Tested on: 299254-011-R-J1-PDC complex spheroids viability
Experiment: Anticancer human tumor 299254-011-R-J1-PDC patient-derived melanoma cell line growth inhibition [GQUAD]
Conditions: for IC50: curve of first compound; for viability, T/C: stronger effect = lower value
Source text: DNA G-quadruplex Stabilizer Agents in Combinations in Complex Spheroids
A high-throughput screen of multi-cell type tumor spheroids was designed to identify active combinations of DNA G-quadruplex stabilizer agents and targeted small molecules. Complex spheroids include a stromal component modeled by human endothelial cells (HUVEC) and fibroblasts modeled by human mesenchymal stem cells (MSCs). The concentration ranges selected for each drug and investigational agent were based upon clinically achievable concentrations if the clinical Cmax of the agent was known.
Compounds. The drugs and investigational agents: pidnarulex (CX-5461; NSC782164), APTO-253 (NSC789042), BRACO-19 (NSC847499), peposertib (NSC802822), ceralasertib (NSC780249), elimusertib (NSC800525), camonsertib (NSC841442), AZD-1390 (NSC803789), olaparib (NSC753686), talazoparib (NSC767125), ART-558 (NSC835418), sotorasib (NSC818433), MRTX-1133 (NSC836407), SN-38 (NSC673596), topotecan (NSC609699), etoposide (NSC141540), doxorubicin (NSC123127), gemcitabine (NSC613327), 5-fluorouracil (NSC19893), paclitaxel (NSC125973), vemurafenib (NSC761431), panobinostat (NSC761190), R-306465 (JNJ-16241199; NSC773264), adavosertib (NSC754352), TP-3654 (NSC805149), carboplatin (NSC241240), KSQ-4279 (NSC840948), and staurosporine (NSC755774) were obtained from the National Cancer Institute (NCI) Developmental Therapeutics Program Chemical Repository (34). The FDA-approved anticancer drug set is available from the NCI Developmental Therapeutics Program. […] The stock solutions were prepared in dimethyl sulfoxide (DMSO, Sigma-Aldrich, St. Louis, MO, cat. D2650) at 800-fold the tested concentration and stored at -70 degrees C prior to their use. All drugs and investigational agents were tested over a range starting from a high concentration at or near the clinical Cmax and decreasing in half-log increments. If the clinical Cmax for an agent had not been determined, the highest concentration tested was 10 microM.
2.3 Cell Culture. All cells were maintained in an incubator at 37 degrees C and 5% CO2 with 95% humidity. The PDC lines were cultured according to standard operating procedures established by the NCI PDMR. All PDCs were thawed and cultured in Matrigel-coated flasks prepared with a working solution of 1X Ham's F-12 nutrient mix, without supplementation (Invitrogen, cat. 11765054), 100 U/mL penicillin-streptomycin (Invitrogen, cat. 15140122), and 2.5% Matrigel (Corning Inc., cat. 354248) for the first three passages. The 857933-349-R-J2-PDC line was cultured in 6C/Colon 1B media, which includes advanced DMEM/F-12 (Thermo Fisher Scientific, cat. 12634028), 10 mM HEPES (Thermo Fisher Scientific, cat. 15630080), 1X GlutaMAX supplement (Thermo Fisher Scientific, cat. 35050061), 0.1 mg/mL primocin (InvivoGen, cat. ant-pm-2), 10% defined fetal bovine serum, heat inactivated (HyClone Laboratories Inc., cat. SH30070.03HI), 50% L-WRN conditioned media (ATCC, cat. CRL-3276), 1.25 mM N-Acetyl-L-cysteine (Sigma-Aldrich, cat. A9165), 10 mM nicotinamide (Sigma-Aldrich, cat. N0636), 1X B-27 supplement (Thermo Fisher Scientific, cat. 17504044), 1X N-2 supplement (Thermo Fisher Scientific, cat. 17502048), 10 microM Y-27632 dihydrochloride (Tocris Bioscience, cat. 1254), and 50 ng/mL human EGF recombinant protein (Thermo Fisher Scientific, cat. PHG0311). The 485176-168-R4-J1-PDC line was cultured in Panc media, which includes all 6C/Colon 1B media components plus 100 ng/mL human FGF-10 (Thermo Fisher Scientific, cat. 100-26), 500 nM SB-431542 (Selleckchem, cat. S1067), and gastrin (Tocris, cat. 3006).
[…]

[1] = second compound 0.0316 µM, first compound 0.0316 µM
[2] = second compound 0.0316 µM, first compound 0.1 µM
[3] = second compound 0.0316 µM, first compound 0.316 µM
[4] = second compound 0.0316 µM, first compound 1 µM
[5] = second compound 0.0316 µM, first compound 3.16 µM
[6] = second compound 0.0316 µM, first compound 10 µM
[7] = second compound 0.1 µM, first compound 0.0316 µM
[8] = second compound 0.1 µM, first compound 0.1 µM
[9] = second compound 0.1 µM, first compound 0.316 µM
[10] = second compound 0.1 µM, first compound 1 µM
[11] = second compound 0.1 µM, first compound 3.16 µM
[12] = second compound 0.1 µM, first compound 10 µM
[13] = second compound 0.316 µM, first compound 0.0316 µM
[14] = second compound 0.316 µM, first compound 0.1 µM
[15] = second compound 0.316 µM, first compound 0.316 µM
[16] = second compound 0.316 µM, first compound 1 µM
[17] = second compound 0.316 µM, first compound 3.16 µM
[18] = second compound 0.316 µM, first compound 10 µM
[19] = second compound 1 µM, first compound 0.0316 µM
[20] = second compound 1 µM, first compound 0.1 µM
[21] = second compound 1 µM, first compound 0.316 µM
[22] = second compound 1 µM, first compound 1 µM
[23] = second compound 1 µM, first compound 3.16 µM
[24] = second compound 1 µM, first compound 10 µM
[25] = second compound 3.16 µM, first compound 0.0316 µM
[26] = second compound 3.16 µM, first compound 0.1 µM
[27] = second compound 3.16 µM, first compound 0.316 µM
[28] = second compound 3.16 µM, first compound 1 µM
[29] = second compound 3.16 µM, first compound 3.16 µM
[30] = second compound 3.16 µM, first compound 10 µM
[31] = second compound 10 µM, first compound 0.0316 µM
[32] = second compound 10 µM, first compound 0.1 µM
[33] = second compound 10 µM, first compound 0.316 µM
[34] = second compound 10 µM, first compound 1 µM
[35] = second compound 10 µM, first compound 3.16 µM
[36] = second compound 10 µM, first compound 10 µM
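Also: spheroids exposed to the agents for seven days before readout.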
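For viability, T/C in this document: percent viability relative to DMSO vehicle control wells = 100%.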

COc1cc(C2c3cc4c(cc3C(OC3OC5COC(C)OC5C(O)C3O)C3COC(=O)C23)OCO4)cc(OC)c1O (centres undefined) + Cc1[nH]c2ccc(F)cc2c1-c1nc2c3cccnc3c3ncccc3c2[nH]1
IC50 (second compound 0.0316 µM): > 10 µM
IC50 (second compound 0.1 µM): > 10 µM
IC50 (second compound 0.316 µM): > 10 µM
IC50 (second compound 1 µM): > 10 µM
IC50 (second compound 3.16 µM): > 10 µM
IC50 (second compound 10 µM): > 10 µM
viability, T/C [1]: 81.2%
viability, T/C [2]: 79.1%
viability, T/C [3]: 108%
viability, T/C [4]: 85%
viability, T/C [5]: 94.5%
viability, T/C [6]: 76.5%
viability, T/C [7]: 100%
viability, T/C [8]: 97.5%
viability, T/C [9]: 81.2%
viability, T/C [10]: 76.5%
viability, T/C [11]: 99.2%
viability, T/C [12]: 80.1%
viability, T/C [13]: 100%
viability, T/C [14]: 77.3%
viability, T/C [15]: 82.5%
viability, T/C [16]: 86.9%
viability, T/C [17]: 84.3%
viability, T/C [18]: 70.5%
viability, T/C [19]: 101%
viability, T/C [20]: 86%
viability, T/C [21]: 106%
viability, T/C [22]: 87.1%
viability, T/C [23]: 96.7%
viability, T/C [24]: 72.2%
viability, T/C [25]: 99.9%
viability, T/C [26]: 84.9%
viability, T/C [27]: 89.5%
viability, T/C [28]: 89.4%
viability, T/C [29]: 89.5%
viability, T/C [30]: 95%
viability, T/C [31]: 89.7%
viability, T/C [32]: 83%
viability, T/C [33]: 95.3%
viability, T/C [34]: 86.1%
viability, T/C [35]: 96.2%
viability, T/C [36]: 56.5%

Nc1ccn(C2OC(CO)C(O)C2(F)F)c(=O)n1 (centres undefined) + Cc1[nH]c2ccc(F)cc2c1-c1nc2c3cccnc3c3ncccc3c2[nH]1
IC50 (second compound 0.0316 µM): > 10 µM
IC50 (second compound 0.1 µM): 6.46 µM
IC50 (second compound 0.316 µM): > 10 µM
IC50 (second compound 1 µM): > 10 µM
IC50 (second compound 3.16 µM): > 10 µM
IC50 (second compound 10 µM): > 10 µM
viability, T/C [1]: 112%
viability, T/C [2]: 78.3%
viability, T/C [3]: 77.8%
viability, T/C [4]: 74.3%
viability, T/C [5]: 68.1%
viability, T/C [6]: 54.6%
viability, T/C [7]: 128%
viability, T/C [8]: 94.5%
viability, T/C [9]: 63.7%
viability, T/C [10]: 64.5%
viability, T/C [11]: 56.5%
viability, T/C [12]: 59.6%
viability, T/C [13]: 116%
viability, T/C [14]: 99.5%
viability, T/C [15]: 59.8%
viability, T/C [16]: 70.5%
viability, T/C [17]: 47.8%
viability, T/C [18]: 66.9%
viability, T/C [19]: 117%
viability, T/C [20]: 112%
viability, T/C [21]: 72.4%
viability, T/C [22]: 49%
viability, T/C [23]: 60.6%
viability, T/C [24]: 74%
viability, T/C [25]: 96.4%
viability, T/C [26]: 97%
viability, T/C [27]: 70.8%
viability, T/C [28]: 58.1%
viability, T/C [29]: 55.4%
viability, T/C [30]: 52.2%
viability, T/C [31]: 102%
viability, T/C [32]: 103%
viability, T/C [33]: 62.9%
viability, T/C [34]: 45.6%
viability, T/C [35]: 59%
viability, T/C [36]: 49%
